Results reported in patent US4168379A, “Pyridin-3-ols” (BASF Aktiengesellschaft, priority 1977, dated 1979).

Experiments:
in vivo = type: in vivo, rats (Sprague Dawley strain); settings: rat, in vivo; oral, rats; dose at which Δ% was determined; read-out: Maximum action: Dose (highest non-toxic dose)
Procedure: (§1) To determine the anti-arrhythmic activity, the drugs were administered orally to rats (Sprague Dawley strain, weight […]) 45 minutes before the start of the narcosis.
(§2) The animals were narcotized with thiobutabartital (100 mg/kg administered intraperitoneally). The arrhythmogenic substance used was aconitine, which was administered by intravenous infusion (at a rate of 0.005 mg/kg. min) 60 minutes after administration of the test substance. In the case of untreated animals (N=30), arrhythmias occurred after an average of 3.7±0.9 minutes, the commencement of which can be delayed by anti-arrhythmic agents, the delay depending on the dosage.
(§3) For a quantitative evaluation of the linear relation between log dose (mg/kg) of the test substances and the relative prolongation of the duration of aconitine infusion (Δ%), the dose which extended the duration of infusion by 50% (ED 50) was determined. The prior art anti-arrhythmic agent quinidine served as a comparative substance.

[1] = test system: Aconitine-induced arrhythmia; assay: animal or person; type: in vivo, rats (Sprague Dawley strain); settings: for ED50: Rattus norvegicus, po, 1 h, read-out: ED 50: dose, administered orally, which prolongs the duration of aconitine infusion by 50%; for antiarrhythmic action (in words): as such and/or as acid addition salts
Procedure: as §1, §2, §3

[2] = acute toxicity (LD 50, Probit analysis, death within 24 hours); settings: mouse, in vivo; for LD50 at 24 h: ip, intraperitoneal, female Swiss mice; for selectivity ratio: footnote 7 formula given as drawing 13, values correspond to LD 50 (mice, i.p.) / ED 50 (rats, oral), read-out: Therapeutic range
Procedure: The acute toxicity was determined on groups of 10 or 20 female Swiss mice, weighing 20-26 g, the compounds being administered intraperitoneally.

Cc1nc(Cc2ccccc2)c2c(c1OCCCNC(C)C)COC2 [Example IV, 4-benzyl-6-methyl-1,3-dihydro-furo[3,4-c]pyridin-7-yl 3-isopropylamino-propyl ether]
MTD (in vivo): 215 mg/kg
ED50 [1]: 28.9 mg/kg
antiarrhythmic action (in words) [1]: have an antiarrhythmic action
LD50 at 24 h [2]: 139 mg/kg
selectivity ratio [2]: 4.81

CN(C)CCCOc1c(Cc2ccccc2)nc(Cc2ccccc2)c2c1COC2 [III, 4,6-dibenzyl-1,3-dihydrofuro[3,4-c]pyridin-7-yl 3-dimethylaminopropyl ether]
MTD (in vivo): 215 mg/kg
ED50 [1]: 14.9 mg/kg
antiarrhythmic action (in words) [1]: have an antiarrhythmic action
LD50 at 24 h [2]: 98.3 mg/kg
selectivity ratio [2]: 6.6

C=C[C@H]1C[N@@]2CC[C@H]1C[C@@H]2[C@@H](O)c1ccnc2ccc(OC)cc12 [Quinidine, quinidine, reference compound]
ED50 [1]: 42.3 mg/kg
LD50 at 24 h [2]: 180 mg/kg

Cc1nc(Cc2ccccc2)c2c(c1OCCCCNC(C)C)COC2 [V, 4-benzyl-6-methyl-1,3-dihydro-furo[3,4-c]pyridin-7-yl 4-isopropylaminobutyl ether]
MTD (in vivo): 100 mg/kg
ED50 [1]: 5.66 mg/kg
antiarrhythmic action (in words) [1]: have an antiarrhythmic action
LD50 at 24 h [2]: 99.3 mg/kg
selectivity ratio [2]: 17.5

Cc1nc(Cc2ccccc2)c2c(c1OCCC(C)CCNC(C)C)COC2 (centres unmarked) [VI, 4-benzyl-6-methyl-1,3-dihydrofuro[3,4-c]pyridin-7-yl 5-isopropylamino-(3-methylpentyl) ether]
MTD (in vivo): 100 mg/kg
ED50 [1]: 12.2 mg/kg
antiarrhythmic action (in words) [1]: have an antiarrhythmic action
LD50 at 24 h [2]: 82.2 mg/kg
selectivity ratio [2]: 6.74

CCN(CC)CCC(C)CCOc1c(C)nc(Cc2ccccc2)c2c1COC2 (centres unmarked) [VII, 4-benzyl-6-methyl-1,3-dihydro-furo[3,4-c]pyridin-7-yl 5-diethylamino-(3-methylpentyl) ether]
MTD (in vivo): 100 mg/kg
ED50 [1]: 11.3 mg/kg
antiarrhythmic action (in words) [1]: have an antiarrhythmic action
LD50 at 24 h [2]: 88.9 mg/kg
selectivity ratio [2]: 7.86

Cc1nc(Cc2ccccc2)c2c(c1OCCCCNC(C)(C)C)COC2 [VIII, 4-benzyl-6-methyl-1,3-dihydrofuro[3,4-c]pyridin-7-yl 4-tert.-butylamino-butyl ether]
MTD (in vivo): 46.4 mg/kg
ED50 [1]: 9.29 mg/kg
antiarrhythmic action (in words) [1]: have an antiarrhythmic action
LD50 at 24 h [2]: 73.9 mg/kg
selectivity ratio [2]: 7.95
